Test results taken from patent US9758485B2, “Compounds for controlling arthropods” (priority 2013, dated 2017).
Like-named read-outs stand apart in the source and are kept apart here.

Legend:
[1] = logP determination by HPLC on a reversed-phase column (C18), EEC Directive 79/831 Annex V.A8; format: physicochemical; conditions: for log P: HPLC on reversed-phase column (C18)
Ctenocephalides felis [2] = experiment: Ctenocephalides felis - oral test; format: in vivo; conditions: Ctenocephalides felis, po, 48 h; application rate 100 ppm in citrated cattle blood; adult fleas; kill after 2 days; read-out: efficacy
How it was run: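 Steps: active ingredient dissolved in dimethyl sulphoxide; blood dilution prepared; fleas (about 20, unfed adults) held in gauze-closed chamber beneath a cylinder of treated blood; feeding via parafilm; kill percentage determined after 2 days.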

Lucilia cuprina = Lucilia cuprina test; format: in vivo; conditions: Lucilia cuprina, 48 h; application rate 100 ppm; L1 larvae in minced horsemeat; kill after 2 days; read-out: efficacy
How it was run: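 Mortality (%) of first-instar blowfly larvae, about 20 per vessel, recorded 2 days after exposure to compound-treated minced horsemeat. Compound dissolved in dimethyl sulphoxide, then water-diluted to the desired concentration.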

Phaedon cochleariae = Phaedon cochleariae - spray test; format: in vivo; conditions: Phaedon cochleariae, foliar, 168 h, larvae on Chinese cabbage leaf discs, after 7 days, read-out: efficacy; for pest or weed control at 100 g/ha: application rate 100 g/ha
Description: Phaedon cochleariae—Spray Test
(§1) Solvent: 78.0 parts by weight of acetone and 1.5 parts by weight of dimethylformamide
(§2) Emulsifier: alkylaryl polyglycol ether
(§3) To produce an appropriate active ingredient formulation, 1 part by weight of active ingredient is dissolved using the specified parts by weight of solvent and made up with water containing an emulsifier concentration of 1000 ppm until the desired concentration is attained. To produce further test concentrations, the preparation is diluted with emulsifier-containing water.
Discs of Chinese cabbage leaves (Brassica pekinensis) are sprayed with an active ingredient formulation of the desired concentration and, after drying, populated with larvae of the mustard beetle (Phaedon cochleariae).
After 7 days, efficacy in % is determined. 100% means that all the beetle larvae have been killed; 0% means that no beetle larvae have been killed.

Spodoptera frugiperda = Spodoptera frugiperda - spray test; format: in vivo; conditions: foliar, 168 h, caterpillars on maize leaf discs, after 7 days, read-out: efficacy; for pest or weed control at 100 g/ha: application rate 100 g/ha
Description: Spodoptera frugiperda—Spray Test
as §1, §2, §3
Leaf discs of maize (Zea mays) are sprayed with an active ingredient formulation of the desired concentration and, after drying, populated with caterpillars of the armyworm (Spodoptera frugiperda).
After 7 days, efficacy in % is determined. 100% means that all the caterpillars have been killed; 0% means that no caterpillars have been killed.

Tetranychus urticae = Tetranychus urticae - spray test, OP-resistant; format: in vivo; conditions: foliar, 144 h, bean leaf discs, after 6 days, read-out: efficacy; for pest or weed control at 100 g/ha: application rate 100 g/ha
Description: Tetranychus urticae—Spray Test, OP-Resistant
as §1, §2, §3
Discs of bean leaves (Phaseolus vulgaris) infested by all stages of the greenhouse red spider mite (Tetranychus urticae) are sprayed with an active ingredient formulation of the desired concentration.
After 6 days, efficacy in % is determined. 100% means that all the spider mites have been killed; 0% means that none of the spider mites have been killed.

Rhipicephalus sanguineus = Rhipicephalus sanguineus - in vitro contact tests with adult brown dog ticks; format: in vivo; conditions: application rate 5 μg/cm^2, after 48 h (dead or moribund)
How it was run: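 Test compound was dissolved in acetone p.a. (9 mg in 1 ml, then diluted), and 250 μl were spread evenly over the inner surface of 25 ml test tubes on an orbital shaker at 30 rpm for 2 h. Once the solvent evaporated, 5-10 adult Rhipicephalus sanguineus ticks were sealed in, kept dark at room temperature, and after 48 h placed on a 45-50° C. hotplate to score dead or moribund ticks.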

Boophilus microplus = Boophilus microplus - injection test; format: in vivo; conditions: Rhipicephalus microplus, 168 h; application rate 20 μg/animal; injected into engorged adult female ticks; laying of fertile eggs, after 7 days; read-out: efficacy
How it was run: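 Engorged adult female ticks, five per dose, were injected in the abdomen with 1 μl of active ingredient diluted in dimethyl sulphoxide. Animals were kept in dishes under climate control, and egg fertility was assessed after 7 days.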

Musca domestica = Musca domestica test; format: in vivo; conditions: application rate 100 ppm; adult houseflies; kill after 2 days
How it was run: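 First, 10 mg compound was taken up in 0.5 ml DMSO and then brought with water to the required concentration. This was applied with sugar solution to a sponge in vessels holding 10 adult flies; kill was assessed after 2 days.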

Meloidogyne incognita = Meloidogyne incognita test; format: in vivo; conditions: application rate 20 ppm; formation of galls on lettuce roots after 14 days
Description: Meloidogyne incognita Test
Solvent: 125.0 parts by weight of acetone
To produce an appropriate active ingredient formulation, 1 part by weight of active ingredient is mixed with the stated amount of solvent and the concentrate is diluted with water to the desired concentration.
Vessels are filled with sand, active ingredient solution, an egg/larvae suspension of the southern root-knot nematode (Meloidogyne incognita) and lettuce seeds. The lettuce seeds germinate and the plants develop. The galls develop on the roots.
After 14 days, the nematicidal efficacy in % is determined by the formation of galls. 100% means that no galls were found; 0% means that the number of galls on the treated plants corresponds to the untreated control.

Ctenocephalides felis [3] = experiment: Ctenocephalides felis - in vitro contact tests with adult cat fleas; format: in vivo; conditions: application rate 5 μg/cm^2 (=500 g/ha), after 48 h (dead or moribund)
How it was run: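 Efficacy, as share of dead or moribund adult Ctenocephalides felis, read 48 h after placing 5-10 fleas in tubes coated by acetone solution (5 μg/cm^2 at 900 ppm). Incubation horizontal at room temperature, ambient humidity; immobile or uncoordinated fleas scored.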

[4] = test system: Boophilus microplus Parkhurst strain, SP-resistant; experiment: Boophilus microplus - dip test; format: in vivo; conditions: application rate 100 ppm; dip of engorged adult female ticks; laying of fertile eggs, after 7 days
How it was run: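 Efficacy reflects suppression of fertile egg laying: 0% means all eggs fertile, 100% none, read at 7 days, doubtful eggs kept ~42 days for larval hatch. Treatment was a complete dip of 8–10 engorged adult female ticks (SP-resistant Parkhurst strain) in a water dilution of a DMSO stock.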

[5] = reversed-phase HPLC column (C18), HPLC, reversed-phase C18, acetonitrile/water with formic acid, 55° C., read-out: logP

chromatographic logP [1, 5]	SMILES	pest or weed control at 100 ppm (Ctenocephalides felis [2]) [%]	pest or weed control at 100 ppm (Lucilia cuprina) [%]	pest or weed control at 100 g/ha (Phaedon cochleariae) [%]	pest or weed control at 100 g/ha (Spodoptera frugiperda) [%]	pest or weed control at 100 g/ha (Tetranychus urticae) [%]	further results
4.75	Cc1cc(C(F)(C(F)(F)F)C(F)(F)F)cc(C)c1-c1cc(-c2ccc(Cl)c(C(=O)NC3CC3)c2)on1 [I-T22-1, 2-chloro-N-cyclopropyl-5-[3-[2,6-dimethyl-4-[1,2,2,2-tetrafluoro-1-(trifluoromethyl)ethyl]phenyl]isoxazol-5-yl]benzamide]	100	100	100	100	90	–
3.1	COc1cc(C(F)(F)F)cc(F)c1-n1cc(-c2ccc(Cl)c(C(=O)NC3CC3)c2)cn1 [I-T3-50, 2-chloro-N-cyclopropyl-5-[1-[2-fluoro-6-methoxy-4-(trifluoromethyl)phenyl]pyrazol-4-yl]benzamide]	100	100	100	83	90	chromatographic logP ([1]; reversed-phase HPLC column (C18), HPLC-MS method a), Table I-T3; read-out: logP^a)): 3.1; chromatographic logP ([1]; reversed-phase HPLC column (C18), HPLC-MS method a); read-out: logP^a)): 3.1
5	Cc1cc(C(F)(C(F)(F)F)C(F)(F)F)cc(C(F)(F)F)c1-n1cc(-c2ccc(Cl)c(C(=S)NC3CC3)c2)cn1 [I-T3-161, 2-chloro-N-cyclopropyl-5-[1-[2-methyl-4-[1,2,2,2-tetrafluoro-1-(trifluoromethyl)ethyl]-6-(trifluoromethyl)phenyl]pyrazol-4-yl]benzenecarbothioamide]	100	100	100	100	100	chromatographic logP ([1]; reversed-phase HPLC column (C18), HPLC-MS method a), reversed-phase column (C18); read-out: logP^a)): 5; chromatographic logP ([1]; reversed-phase HPLC column (C18), HPLC-MS, reversed-phase column (C18), read-out: log P): 5; efficacy (Rhipicephalus sanguineus): 100%; pest or weed control at 0.02 mg (Boophilus microplus): 100%; efficacy (Musca domestica): 100%
–	O=C(NC1CC1)c1cc(-c2cnn(-c3c(Cl)cc(C(F)(F)F)c(F)c3Cl)c2)ccc1Cl [I-T3-184]	–	–	–	–	–	log P [1]: 3.6; efficacy (Meloidogyne incognita): 90%
–	N#CC1(NC(=O)c2cc(-c3cnn(-c4c(Cl)cc(C(F)(F)F)c(F)c4Cl)c3)ccc2Cl)CC1 [I-T3-185]	–	–	–	–	–	log P [1]: 3.6; efficacy (Meloidogyne incognita): 90%
4.42	Cc1cc(C(F)(C(F)(F)F)C(F)(F)F)cc(C)c1-c1cnn(-c2cnc(Cl)c(C(=O)NC3CC3)c2)c1 [I-T4-3, 2-chloro-N-cyclopropyl-5-[4-[2,6-dimethyl-4-[1,2,2,2-tetrafluoro-1-(trifluoromethyl)ethyl]phenyl]pyrazol-1-yl]pyridine-3-carboxamide]	100	100	100	100	100	–
4.96	O=C(NC1CC1)c1cc(-c2cc(-c3c(Cl)cc(C(F)(C(F)(F)F)C(F)(F)F)cc3Cl)on2)ccc1Cl [I-T23-1, 2-chloro-N-cyclopropyl-5-[5-[2,6-dichloro-4-[1,2,2,2-tetrafluoro-1-(trifluoromethyl)ethyl]phenyl]isoxazol-3-yl]benzamide]	100	100	–	–	–	pest or weed control at 500 g/ha (Phaedon cochleariae; application rate 500 g/ha): 100%; pest or weed control at 500 g/ha (Spodoptera frugiperda; application rate 500 g/ha): 100%; pest or weed control at 500 g/ha (Tetranychus urticae; application rate 500 g/ha): 100%
4.74	Cc1cc(C(F)(C(F)(F)F)C(F)(F)F)cc(C)c1-c1cnn(-c2ccc(Cl)c(C(=O)NC3CC3)c2)c1 [I-T4-1, N-cyclopropyl-2-chloro-5-[4-[2,6-dimethyl-4-[1,2,2,2-tetrafluoro-1-(trifluoromethyl)ethyl]phenyl]pyrazol-1-yl]benzamide]	100	100	100	100	100	–
4.7	Cc1cc(C(F)(C(F)(F)F)C(F)(F)F)cc(C(F)(F)F)c1-c1cc(-c2ccc(Cl)c(C(=O)NC3(C#N)CC3)c2)on1 [I-T22-7, 2-chloro-N-(1-cyanocyclopropyl)-5-[3-[2-methyl-4-[1,2,2,2-tetrafluoro-1-(trifluoromethyl)ethyl]-6-(trifluoromethyl)phenyl]isoxazol-5-yl]benzamide]	100	100	100	100	100	efficacy (Rhipicephalus sanguineus): 100%; efficacy (Ctenocephalides felis [3]): 100%; pest or weed control at 0.02 mg (Boophilus microplus): 100%; efficacy [4]: 100%; efficacy (Musca domestica): 100%
